In patent US12729382B2, “Tea plant CsVAAT3 gene and use thereof” (Anhui Agricultural University, priority 2022, dated 2026):

Test system: wild-type BY4743 and yeast vacuolar amino acid mutants YPQ2, AVT2, AVT6
Experiment: Yeast dotting growth phenotype on high-concentration theanine medium
Format: cell-based
Details: theanine 50 mM
Procedure: Yeast mutants YPQ2, AVT2, and AVT6 are high-concentration theanine-sensitive strains, and their growth is inhibited in a high-concentration theanine environment, which was used to verify the stress resistance of the selected genes. The YPQ2 strain was streaked on YPDA Agar Medium and cultured upside down in a constant temperature incubator at 28° C. for 2-3 days. A well-grown single colony was picked in a 2 mL centrifuge tube, added with 1 mL of YPDA Liquid Medium, and incubated at 28° C. on a shaker at 180 r/min for one day. 200 μL of well-grown yeast suspension was transferred to 30 mL of YPDA Liquid Medium, and incubated on a shaker at 28° C. and 180 r/min for 12-24 h. […] 500 μL of PEG mixture and 5 μL of DTT (1 M, ready for use) were added and vortexed. […]
A single colony was picked in 20 mL of SD-U […] medium and shaken to an OD600 value of about 1.0 at 28° C. and 180 r/min (for about 48 h); 4 mL of yeast suspension was pipetted and centrifuged at 5,000 rpm for 2 min, the supernatant was discarded (under aseptic operation), cells were resuspended with sterile water, and the OD600 value was detected; the yeast suspension was diluted with sterile water to an OD600 value of 0.6 (the difference between the OD600 values of each sample should not exceed 0.02); (under aseptic operation) the yeast suspension was diluted to 10^0, 10^−1, 10^−2, and 10^−3 in turn. […]

CCNC(=O)CC[C@H](N)C(=O)O [theanine]
growth of yeast under theanine treatment (CsVAAT3-transformed yeast mutants (pDR196-CsVAAT3)): normal growth state
growth of yeast under theanine treatment (wild-type BY4743 and mutants YPQ2, AVT2, AVT6 (empty vector pDR196), solid medium, 30° C., about three days): significantly inhibited
